We go through four substances from doi:10.1101/2025.07.11.664294 (bioRxiv, 2025).

Test [1] relates to MMP-2. The test is described as follows: MMP-2 inhibition assay (Enzo MMP-2 drug discovery kit). In kind it is biochemical, human. The settings on record: NNGH positive control. The procedure:
The MMP-2 inhibition assay was performed using the Enzo Life Sciences MMP-2 drug discovery kit. and the quenched fluorogenic substrate OmniMMP RED. Reference substrate was diluted to a final concentration of 5 μM, while the MMP-2 enzyme was diluted to 58 mU/μL, and the N-Isobutyl-N-(4-methoxyphenylsulfonyl)glycyl hydroxamic acid (NNGH) inhibitor was diluted to a concentration of 1/200 in assay buffer. […] The assay was performed using a black 96-well microplate. Fluorescence was measured at excitation/emission wavelengths of 545/576 nm, with a cutoff at 570 nm using Gen5 microplate reader (BioTeK, Shoreline, WA). Baseline fluorescence was recorded before adding NNGH inhibitor which was used as a positive control for MMP-2 inhibition. Reaction mixtures in the plate were incubated at 37 °C for 10 min, and fluorescence was measured at 10 min intervals for the first 30 min, then at 30 min intervals until 2 h had elapsed. Percentage of inhibition of MMP-2 activity by Ctx and its analogs was calculated as percent of control. Statistical analysis was performed using ANOVA with GraphPad Prism software, version 10.0.3.

Another test relates to U87MG glioblastoma cells. The test is described as follows: Wound-healing scratch assay. The class given is cell-based, human. Conditions: 50 μM peptide, 24 h, mitomycin C 3 μg/ml; wound closure by ImageJ. The procedure:
The U87MG GBM cell line (U-87 MG, ATCC® HTB-14) was cultured in Dulbecco’s Modified Eagle Medium (DMEM) and appropriate growth factors at 37°C in a humidified 5% CO2 atmosphere. Cells were seeded at 40,000 cells per well in 96-well plates and allowed to adhere overnight. Then, mitomycin C (3 μg/ml) was added to inhibit further cell replication, and 50 μM Ctx and its analogs were added. Untreated wells served as a control. Wounds were created by manually scratching the cell monolayer with a 200 μL multi-channel pipette tip, and plates were analyzed at 0 h and 24 h time points using the MetaXpress image acquisition software (Molecular Devices, San Jose, CA). The ImageJ Ver. 1.54f program (NIH (National Institutes of Health) was used for image analysis. Wound closure was quantified using the Wound_Healing_Size_tool_plugin., analyzing the percentage of wound area covered by migrating cells. To determine significance, statistical analysis was performed using appropriate methods (t-test or ANOVA) using GraphPad Prism software, version 10.0.3.

In a further test the test system is recombinant MMP-2. The test is described as follows: Differential scanning fluorimetry (DSF). In kind it is binding, human. The settings on record: 1 μM MMP-2, 30 μM (Ctx) or 50 μM (P75 and P76) peptide, PBS pH 7.1, SYPRO-orange, average and SD of n ≥ 3. Here is the method:
The melting temperatures (Tm) of recombinant MMP-2 and its complexes with peptides were ascertained using BioRad CFX384 Touch real-time PCR (Hercules, CA, USA). The experiments were performed as previously described. The unfolding of the protein was detected using the fluorescent SYPRO-orange dye (Invitrogen, Carlsbad, CA, USA). MMP-2 and prospective ligand peptides were dissolved in 7.1 pH phosphate buffered saline (154 mM NaCl, 5.6 mM Na2PO4, 1.1mM KH2PO4), and the reaction mixture was made to a final concentration of 1 μM of protein, either 30 μM (Ctx) or 50 μM (P75 and P76) of peptide, and 1000x dilution of the SYPRO-Orange dye stock from the manufacturer. Excitation and emission filters of the dye were set at 450–490 nm and 560–580 nm, respectively. The temperature for the reaction was held at 25 °C for 5 min, and then a gradient of 25 °C to 95 °C was applied at a rate of 0.3 °C/min, and the fluorescence was recorded. To determine Tm of the protein, the first derivatives of melting curves were plotted using GraphPad Prism software, version 10.0.3.

The target in another test is T1, Neuropilin-1 (NRP-1) (Homo sapiens, UniProt O14786).
T1 construct: containing amino acid residues Phe22-Lys644, with a poly-histidine tag at the C-terminus; purchased ACROBiosystems NR1-H5228
T1 sequence (O14786 22-644 isoform O14786-2): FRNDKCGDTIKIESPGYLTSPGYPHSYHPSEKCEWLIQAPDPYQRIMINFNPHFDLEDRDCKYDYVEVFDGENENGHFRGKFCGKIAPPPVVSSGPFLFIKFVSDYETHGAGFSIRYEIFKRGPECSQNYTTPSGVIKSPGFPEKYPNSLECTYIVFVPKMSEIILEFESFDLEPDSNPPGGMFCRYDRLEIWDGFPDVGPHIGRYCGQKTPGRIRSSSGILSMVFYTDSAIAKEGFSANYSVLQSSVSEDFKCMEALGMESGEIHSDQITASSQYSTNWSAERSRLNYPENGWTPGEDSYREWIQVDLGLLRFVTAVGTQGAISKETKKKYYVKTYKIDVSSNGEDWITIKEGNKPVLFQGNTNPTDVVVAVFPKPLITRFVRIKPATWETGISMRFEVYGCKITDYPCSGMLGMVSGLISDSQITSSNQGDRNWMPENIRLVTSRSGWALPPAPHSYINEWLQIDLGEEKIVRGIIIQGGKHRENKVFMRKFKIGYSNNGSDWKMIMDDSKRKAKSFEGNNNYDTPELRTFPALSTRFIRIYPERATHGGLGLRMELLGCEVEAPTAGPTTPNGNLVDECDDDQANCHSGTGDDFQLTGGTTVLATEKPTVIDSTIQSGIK
The test is described as follows: Surface plasmon resonance (SPR). In kind it is binding. Conditions: NRP-1 immobilized on NTA chip, steady-state affinity model, peptides 500 μM to 3.90 μM, n=3, 4 replicates, read-out: dissociation constant (KD) for NRP-1. The procedure: (§1) Surface plasmon resonance (SPR) reagents, plates, and the NTA chip were purchased from GE Healthcare Life Sciences, now Cytiva (Marlborough, MA, USA). Measurements were performed using the Biacore 8000 SPR System (Marlborough, MA. USA). The running buffer used for protein immobilization and peptide binding consisted of 20 mM Tris, 150 mM NaCl, […] and 0.0005% Tween-20, adjusted to pH 7.4. MMP-2 and NRP-1 were immobilized onto the NTA chip at 15 nM and 25 nM concentration, respectively. Peptides were injected over the immobilized proteins using two-fold serial dilutions from 500 μM to 3.90 μM. Three experiments with four replicates of each were performed. The SPR response curves generated from the Biacore Insight Evaluation Software were fitted to a steady-state affinity model to obtain an equilibrium dissociation constant (KD) for each peptide — protein interaction.

For test [2], the system named is MMP-2. The test is described as follows: Surface plasmon resonance (SPR). In kind it is binding, human. Conditions: MMP-2 immobilized on NTA chip; peptides 500 μM to 3.90 μM; pH 7.4. The procedure:
as §1

The mark [3] stands for this setting: peptides at 1 μM, 50 μM and 100 μM, quenched fluorogenic substrate, one-way ANOVA.

Take “Ac-[Cyc(28,33)]Ctx(27-34)-NH2 [Peptide P78]”: in the test on MMP-2 [1] (setting [3]), the “inhibition of MMP-2 enzymatic activity” value is on record as “not statistically significant”. For the same substance, the “inhibition of U-87MG cell migration” value in the test on U87MG glioblastoma cells was “about 30%”.

As for “Ac-[Cys^26,Ser^28,33,Cyc(26,35)]Ctx(24-36)-NH2 [Peptide P76]”, in the test on recombinant MMP-2, the “Change in melting temperature ΔTm ± SD” value worked out at 0.63 ± 0.36 °C. For the same substance, the “inhibition of MMP-2 enzymatic activity” value in the test with MMP-2 [1] (setting [3]) was “not statistically significant”.

As to “Ac-[Ser^35,Cyc(28,33)]Ctx(24-36)-NH2 [Peptide P75]”, the “Change in melting temperature ΔTm ± SD” value in the test with recombinant MMP-2 was 0.76 ± 1.56 °C. The dissociation constant Kd on Neuropilin-1 (NRP-1) is 330 ± 146 µM. Moreover, the “inhibition of MMP-2 enzymatic activity” value in the test with MMP-2 [1] (setting [3]) is “not statistically significant”. In the test on U87MG glioblastoma cells, the “inhibition of U-87MG cell migration” value is “Inhibition of U-87MG cell migration”.

Regarding Chlorotoxin [Ctx, reference compound], the “binding to MMP-2 by SPR” value in the test with MMP-2 [2] was “did not bind”. Further, the “inhibition of MMP-2 enzymatic activity” value in the test with MMP-2 [1] (Ctx at 1 μM, 5 μM, 10 μM, 15 μM and 20 μM, quenched fluorogenic substrate OmniMMP RED) is “did not inhibit MMP-2 activity”; in the test with MMP-2 [1] (setting [3]), “not statistically significant”.
